# Assay results as given in patent US9023821B2, “Use of MicroRNA for treating diseases associated with a dysfunction of the cilia in multiciliated epithelial cells” (Centre National de la Recherche Scientifique, priority 2009, dated 2015).
# Key:
# [1] = system: basal cells and pyramidal cells of the airway epithelium; experiment: miRNA expression in sorted basal cells versus pyramidal cells (ciliated + secretory), HTS and Agilent chips; design: species or system human; settings: for Modulation of expression of the miRNAs in pyramidal cells (323(−)) relative to basal cells 323(+): HTS and Agilent chips; for Intensity of the level of expression in log2 in pyramidal cells (323(−)): pyramidal cells (ciliated + secretory)
# Procedure: After dissociation of the stroma of nasal polyps, the epithelial cells (about 20.10^6) are incubated in PBS-BSA-EDTA for 30 min and then incubated with labeled antibody CD151-PE and anti-TF (tissue factor)-FITC for 20 min, 4° C. (see Hajj, R. et al., Stem Cells 25, 139-148 (2007)). After washing twice, the cells are taken up in PBS-EDTA and incubated with DAPI for labeling the cells whose integrity has been altered.
# Cell sorting was carried out on the FACSAria sorter (BD Biosciences) equipped with 3 lasers, blue, red and violet. Dead cells, aggregates and double cells were excluded. The doubly positive population of basal cells (CD151+/FT+) and the negative population of cylindrical cells (containing ciliated cells and mucus-secreting cells) (CD151−/FT−) were selected and sorted at a rate of 5000 events/s ([…]). The purity and identity of the sorted cells were then verified by cytometry and immunocytochemistry.
# Like the native airway epithelium, the model of differentiation in vitro used in these tests consists of basal cells, ciliated cells and mucus-secreting cells. In order to identify the repertoires of the miRNAs specific to each of the cellular types, the inventors used cell sorting by flow cytometry by means of specific markers (Hajj, R. et al. 2007). Using this technique, adult airway progenitor cells (corresponding a priori to basal cells) were isolated, selected and sorted (such cells appear doubly positive for tetraspanin CD151 and for the tissue factor) from the pyramidal cells (i.e. ciliated cells and mucus-secreting cells) which appear negative for these same markers. These were purified from polyps or from nasal conchae obtained from 3 separate donors.
# After extracting the total RNAs, the expression profiles of the miRNAs were established by means of Agilent® commercial chips or by high-throughput sequencing (HTS). […] For the first time, the inventors thus attribute a repertoire of expression of the miRNAs specifically to separate cellular types of the airway epithelium during differentiation.
# [2] = system: human airway epithelial cells (HAECs); experiment: Agilent miRNA chips, miRNA expression at four stages of differentiation of HAECs; settings: for Modulation (ratio of the level of intensity of expression in log2 in two stages of differentiation) measured with the Agilent chips, D7 − D0 / Modulation (ratio of the level of intensity of expression in log2 in two stages of differentiation) measured with the Agilent chips, FC − D7 / Modulation (ratio of the level of intensity of expression in log2 in two stages of differentiation) measured with the Agilent chips, WD − D0 / Modulation (ratio of the level of intensity of expression in log2 in two stages of differentiation) measured with the Agilent chips, WD − FC / Level of intensity of expression in log2 measured with the Agilent chips, D0 / Level of intensity of expression in log2 measured with the Agilent chips, D7 / Level of intensity of expression in log2 measured with the Agilent chips, FC / Level of intensity of expression in log2 measured with the Agilent chips, WD: Table VI; for Modulation (ratio of the level of intensity of expression in log2 at two stages of differentiation), FC − D7 / Modulation (ratio of the level of intensity of expression in log2 at two stages of differentiation), WD − FC: Agilent miRNA chips, Table V; for Level of intensity of expression in log2 measured with the Agilent chips, D0: stage D0; for Level of intensity of expression in log2 measured with the Agilent chips, D7: stage D7; for Level of intensity of expression in log2 measured with the Agilent chips, FC: stage FC; for Level of intensity of expression in log2 measured with the Agilent chips, WD: stage WD
# Excerpt: In parallel with the high-throughput sequencing of the microRNAs, the repertoire of expression of the microRNAs (microRNAome) is investigated using the technology of Agilent® microRNA chips. For this, RNA samples from the same patients as before were used, labeled and hybridized on Agilent® miRNA chips (Human miRNA Microarray v2, containing 866 human miRNAs and 89 human viral miRNAs, i.e. all the human miRNAs contained and referenced in Sanger miRBase v.12.0, Agilent Technologies, France) using the “miRNA labeling and hybridization” kit, following the supplier's instructions (Agilent Technologies).
# The inventors then used the Agilent miRNA chips to investigate the repertoire of expression of the miRNAs of the human airway epithelium and compare the results obtained in high-throughput sequencing with those obtained with Agilent® commercial miRNA chips.
# [3] = system: human airway epithelial cells (HAECs); experiment: High-throughput sequencing (HTS) of miRNAs at four stages of differentiation of HAECs; settings: for Modulation (ratio of the level of intensity of expression in log2 in two stages of differentiation) measured by high-throughput sequencing, D7 − D0 / Modulation (ratio of the level of intensity of expression in log2 in two stages of differentiation) measured by high-throughput sequencing, FC − D7 / Modulation (ratio of the level of intensity of expression in log2 in two stages of differentiation) measured by high-throughput sequencing, WD − D0 / Modulation (ratio of the level of intensity of expression in log2 in two stages of differentiation) measured by high-throughput sequencing, WD − FC / Level of intensity of expression in log2 measured by high-throughput sequencing, D0 / Level of intensity of expression in log2 measured by high-throughput sequencing, D7 / Level of intensity of expression in log2 measured by high-throughput sequencing, FC / Level of intensity of expression in log2 measured by high-throughput sequencing, WD: Table VI; for Level of intensity of expression in log2 At the differentiated stage (WD) measured in HTS: healthy human airway epithelial tissue; for Level of intensity of expression in log2 measured by high-throughput sequencing, D0: stage D0; for Level of intensity of expression in log2 measured by high-throughput sequencing, D7: stage D7; for Level of intensity of expression in log2 measured by high-throughput sequencing, FC: stage FC; for Level of intensity of expression in log2 At the differentiated stage (WD) measured in HTS / Level of intensity of expression in log2 measured by high-throughput sequencing, WD: stage WD
# Excerpt: The total RNAs were extracted from HAECs cultivated at the air-liquid interface at four stages of differentiation: ALI-D0 (0 day), ALI-D7 (7 days), ALI-FC (during appearance of the first cilia at about 14 days) and ALI-WD (wholly differentiated at about 21 days). The cells are lysed in reagent with Trizol® (Invitrogen). The total RNAs containing small RNAs and microRNAs are purified on Qiagen RNEasy columns (Qiagen) according to the supplier's instructions.
# The total RNAs containing small RNAs and microRNAs are isolated as before. The procedure is based on the Applied Biosystems Ligase-Enhanced Genome Detection technology (LEGenD™); the SOLiD™ Small RNA Expression kit (Applied Biosystems, France) was used. With this method it is possible to convert the small RNAs of a sample into a library of double-stranded DNA; it was developed by Applied Biosystems SOLiD™ System for a new generation of high-throughput sequencing.
# The high-throughput sequencing of the microRNAs was carried out according to the supplier's recommendations. Briefly, the total RNAs containing the small RNAs are hybridized (65° C., 10 min, then at 16° C., 5 min) and ligated (16° C., 2-16 h in a thermocycler) with the Adaptor Mix A for producing a matrix for sequencing the 5′ end of the small RNAs, or with the Adaptor Mix B for sequencing the 3′ end. The samples are then reverse-transcribed (42° C., 30 min) to synthesize the complementary DNA (cDNA). The library of small RNAs is amplified by PCR and after migration on polyacrylamide gel the amplified small RNAs are cut out and extracted from the gel according to their size (length of about 105-150 bases, according to the supplier's instructions), eluted and resuspended in nuclease-free water. The concentration of nucleic acids is then measured and normalized before proceeding with preparation of the samples for sequencing.
# For each microRNA sequenced, the number of sequences of the 5p strand and of the 3p strand of the microRNA was normalized to 10^6 sequences and converted to percentage abundance of expression for each of the microRNAs. The data were then normalized according to a linear model and an empirical Bayesian method using software R. For subsequent analyses, only the microRNAs were retained for which the percentage expression (or abundance) is greater than 1% of the total of the microRNAs in at least one culture condition, with a |Log2 Ratio| below 0.5 and an adjusted P-value below 0.05.
Substance,Modulation of expression of the miRNAs in pyramidal cells (323(−)) relative to basal cells 323(+) [1],Intensity of the level of expression in log2 in basal cells (323(+)) [1] [log2],Intensity of the level of expression in log2 in pyramidal cells (323(−)) [1] [log2],"Modulation (ratio of the level of intensity of expression in log2 in two stages of differentiation) measured with the Agilent chips, D7 − D0 [2] [log2]","Modulation (ratio of the level of intensity of expression in log2 at two stages of differentiation), FC − D7 [2] [log2]","Modulation (ratio of the level of intensity of expression in log2 in two stages of differentiation) measured with the Agilent chips, FC − D7 [2] [log2]","Modulation (ratio of the level of intensity of expression in log2 in two stages of differentiation) measured with the Agilent chips, WD − D0 [2] [log2]","Modulation (ratio of the level of intensity of expression in log2 at two stages of differentiation), WD − FC [2] [log2]","Modulation (ratio of the level of intensity of expression in log2 in two stages of differentiation) measured with the Agilent chips, WD − FC [2] [log2]","Level of intensity of expression in log2 measured with the Agilent chips, D0 [2] [log2]","Level of intensity of expression in log2 measured with the Agilent chips, D7 [2] [log2]","Level of intensity of expression in log2 measured with the Agilent chips, FC [2] [log2]","Level of intensity of expression in log2 measured with the Agilent chips, WD [2] [log2]","Modulation (ratio of the level of intensity of expression in log2 in two stages of differentiation) measured by high-throughput sequencing, D7 − D0 [3] [log2]","Modulation (ratio of the level of intensity of expression in log2 in two stages of differentiation) measured by high-throughput sequencing, FC − D7 [3] [log2]","Modulation (ratio of the level of intensity of expression in log2 in two stages of differentiation) measured by high-throughput sequencing, WD − D0 [3] [log2]","Modulation (ratio of the level of intensity of expression in log2 in two stages of differentiation) measured by high-throughput sequencing, WD − FC [3] [log2]",Level of intensity of expression in log2 At the differentiated stage (WD) measured in HTS [3] [log2],"Level of intensity of expression in log2 measured by high-throughput sequencing, D0 [3] [log2]","Level of intensity of expression in log2 measured by high-throughput sequencing, D7 [3] [log2]",also measured
"hsa-let-7f: human miRNA, SEQ ID No. 161 (UGAGGUAGUAGAUUGUAUAGUU; expressed or natural sequence; listed as Homo sapiens)",−0.94,10.82,9.88,1.63,−0.73,−0.73,1.08,0.17,0.17,11.11,12.75,12.01,12.19,0.22,−0.56,0.11,0.45,5.35,5.24,5.46,"Level of intensity of expression in log2 measured by high-throughput sequencing, FC [3]: 4.90 log2; Level of intensity of expression in log2 measured by high-throughput sequencing, WD [3]: 5.35 log2"
"hsa-let-7g: human miRNA, SEQ ID No. 162 (UGAGGUAGUAGUUUGUACAGUU; expressed or natural sequence; listed as Homo sapiens)",−0.15,8.37,8.22,1.83,−0.54,−0.54,1.50,0.21,0.21,9.30,11.12,10.59,10.80,−0.24,−0.03,0.56,0.83,12.40,11.84,11.60,"Level of intensity of expression in log2 measured by high-throughput sequencing, FC [3]: 11.57 log2; Level of intensity of expression in log2 measured by high-throughput sequencing, WD [3]: 12.40 log2"
"hsa-miR-15a: human miRNA, SEQ ID No. 9 (UAGCAGCACAUAAUGGUUUGUG; expressed or natural sequence; listed as Homo sapiens)",−2.10,7.86,5.75,2.36,−0.39,−0.39,1.87,−0.10,−0.10,7.74,10.10,9.71,9.61,1.41,−0.19,1.57,0.35,7.68,6.11,7.52,"Level of intensity of expression in log2 measured by high-throughput sequencing, FC [3]: 7.33 log2; Level of intensity of expression in log2 measured by high-throughput sequencing, WD [3]: 7.68 log2"
